What was measured:
Type in all cases: cell-based
spheroid formation = assay: Spheroid formation, comparison with known MMP inhibitor (Figure S10); conditions: 10 µM, 10–14 days
Description: Monolayer cells were separated into single‐cell suspensions at around 70% confluence using a solution of trypsin. After that, the cells were added to N2‐supplemented DMEM/F12 that contained human basal fibroblast growth factor and human recombinant epidermal growth factor. Cells seeded at a density of 5 × 10^3 cells/well in ultra‐low attachment 24‐well plates (Corning Inc., Corning, NY, USA). After 10–14 days of culture, spheres were quantitated by inverted phase contrast microscopy. The relative sphere formation ability was calculated through the IMT iSolution software (IMT iSolution Inc., Northampton, NJ, USA) measuring the pixel intensity of the sphere area randomly in each plate.
Supplementary Figure S10. Comparison of the effects of novel VDAC1/PHB/MMP9 binding compounds and known MMP inhibitor on spheroid formation. Cells were exposed to the compound at 5 μM concentration of SB4 or SB5 and 10 μM of MMP inhibitor (GM 6001, ilomastat) for 10-14 days. The histogram represents spheroid formation, calculated as rate relative to vehicle-treated control, and represented as bar graphs. *p < 0.05; **p < 0.01; ***p < 0.001; NS, no significant difference between compared groups.

CSC221 cells = assay: MTT cell viability, CSC221; conditions: Homo sapiens; 48 h, MTT assay
Description: (§1) Cells (3 × 10^3 cells/well) were seeded on a 96‐well plate, grown overnight, and then treated with compounds at indicated concentrations for 48 h. After incubation with MTT for 4 h at 37°C, cells were lysed with 150 µL of DMSO (Sigma–Aldrich, St. Louis, USA). Absorbance was measured at 570 nm on a microplate reader with the Gen5 software (v.2.03.1; BioTek, Winooski, VT, USA).

HEK293T cells = assay: MTT cell viability, HEK293T; conditions: Homo sapiens, HEK-293T; 48 h, MTT assay
Description: as §1

HCT116 cells = assay: MTT cell viability, HCT116; conditions: Homo sapiens, HCT-116; 48 h, MTT assay
Description: as §1

MCF10A cells = assay: MTT cell viability, MCF10A; conditions: Homo sapiens, MCF-10A; 48 h, MTT assay
Description: as §1

SW620 cells = assay: MTT cell viability, SW620; conditions: Homo sapiens, SW-620; 48 h, MTT assay
Description: as §1

CT26 cells = assay: MTT cell viability, CT26; conditions: Mus musculus, 48 h, MTT assay
Description: as §1

DLD1 cells = assay: MTT cell viability, DLD1; conditions: Homo sapiens, DLD-1; 48 h, MTT assay
Description: as §1

HT29 cells = assay: MTT cell viability, HT29; conditions: Homo sapiens, HT-29; 48 h, MTT assay
Description: as §1

BEAS-2B cells = assay: MTT cell viability, BEAS-2B; conditions: Homo sapiens, 48 h, MTT assay
Description: as §1

HaCaT cells = assay: MTT cell viability, HaCaT; conditions: Homo sapiens, 48 h, MTT assay
Description: as §1

CaCo2 cells = assay: MTT cell viability, CaCo2; conditions: Homo sapiens, Caco-2; 48 h, MTT assay
Description: as §1

| Structure (SMILES) | spheroid formation (spheroid formation) | IC50 (CSC221 cells) [µM] | IC50 (HEK293T cells) [µM] | IC50 (HCT116 cells) [µM] | IC50 (MCF10A cells) [µM] | IC50 (SW620 cells) [µM] | IC50 (CT26 cells) [µM] | IC50 (DLD1 cells) [µM] | IC50 (HT29 cells) [µM] | IC50 (BEAS-2B cells) [µM] | IC50 (HaCaT cells) [µM] | IC50 (CaCo2 cells) [µM] |
| --- | --- | --- | --- | --- | --- | --- | --- | --- | --- | --- | --- | --- |
| CNC(=O)[C@H](Cc1c[nH]c2ccccc12)NC(=O)[C@@H](CC(=O)NO)CC(C)C [GM 6001, ilomastat] | no effect on inhibition of spheroid formation | – | – | – | – | – | – | – | – | – | – | – |
| COc1cc(C)c(C(=O)Oc2cc(C)c(C(=O)O)c(O)c2C)c(OC)c1C [DA, diffractaic acid, reference compound] | – | 133 | 121 | 49.1 | 146 | 46.2 | 46.2 | 64.1 | 62.8 | 54.3 | 84.2 | 90.5 |

Reference: publication PMC12579162, “Synthesized Depside Molecules Suppress the Progression of Colorectal Cancer by Binding VDAC1/PHB/MMP9 Being at the Crossroads of Stemness, Motility, Apoptosis, and Metabolism” (MedComm, 2025)
